Data set [1] is described as follows: refractive index (Na D-line) (dimensionless). As to conditions: 293.15 K; 101.33 kPa; Liquid; Standard Abbe refractometry.
For data set [2] the following is noted: 293.15 K; 101.33 kPa; Liquid; Vibrating tube method.

Each structure is given as a SMILES string. ± gives the expanded uncertainty stated by the source.

For two molecules, refractive index and mass density results are on record in the NIST ThermoML archive (doi:10.1021/je301122r).

Take `Cc1ccc(C)c(C)c1` [1,2,4-trimethylbenzene]: the refractive index (commonly the speed of light in vacuum divided by its phase velocity in the sample) in data set [1] is 1.5047 ± 0.0007. In addition, in data set [2], the mass density (as a rule, mass per unit of volume) is 875.78 ± 0.13 kg/m3.
The corresponding values for `CCc1ccccc1C` [1-ethyl-2-methylbenzene] are 1.5045 ± 0.0007 and 880.66 ± 0.13 kg/m3.
